Columns and labels:
Del19/T790M/C797S EGFR = assay: EGFR degradation HTRF assay in H1975-clone #28 (DTC) cells; format: cell-based; settings: H1975 # 28 DTC (Del19/T790M/C797S), 16h treatment; for DC50: HTRF; for Dmax (%): maximum percentage of degradation
Method in brief: (§1)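 EGFR levels quantified by HTRF on lysates after 16 h compound exposure (top 10 uM, 5-fold, 8 points) in single-cell H1975 clones expressing only exogenous mutant EGFR after sgRNA knockout of endogenous copies. DC50 derived by four-parameter logistic fitting of inhibition percentage.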

L858R/T790M/C797S EGFR = molecular target: T1, L858R/T790M/C797S EGFR (Homo sapiens, UniProt P00533, C797S/L858R/T790M); assay: EGFR degradation HTRF assay in H1975-clone #25 (LTC) cells; format: cell-based; settings: 16h treatment; for DC50: H1975 # 25-LTC (L858R/T790M/C797S), HTRF; for Dmax: NCI-H1975, H1975 # 25-LTC (L858R/T790M/C797S), maximum percentage of degradation
T1 construct: expressed in transfected cells; host or cells: H1975 clone #25 (lentiviral over-expression, endogenous EGFR knocked out by sgRNA)
T1 sequence (P00533 25-1210 T790M/C797S/L858R): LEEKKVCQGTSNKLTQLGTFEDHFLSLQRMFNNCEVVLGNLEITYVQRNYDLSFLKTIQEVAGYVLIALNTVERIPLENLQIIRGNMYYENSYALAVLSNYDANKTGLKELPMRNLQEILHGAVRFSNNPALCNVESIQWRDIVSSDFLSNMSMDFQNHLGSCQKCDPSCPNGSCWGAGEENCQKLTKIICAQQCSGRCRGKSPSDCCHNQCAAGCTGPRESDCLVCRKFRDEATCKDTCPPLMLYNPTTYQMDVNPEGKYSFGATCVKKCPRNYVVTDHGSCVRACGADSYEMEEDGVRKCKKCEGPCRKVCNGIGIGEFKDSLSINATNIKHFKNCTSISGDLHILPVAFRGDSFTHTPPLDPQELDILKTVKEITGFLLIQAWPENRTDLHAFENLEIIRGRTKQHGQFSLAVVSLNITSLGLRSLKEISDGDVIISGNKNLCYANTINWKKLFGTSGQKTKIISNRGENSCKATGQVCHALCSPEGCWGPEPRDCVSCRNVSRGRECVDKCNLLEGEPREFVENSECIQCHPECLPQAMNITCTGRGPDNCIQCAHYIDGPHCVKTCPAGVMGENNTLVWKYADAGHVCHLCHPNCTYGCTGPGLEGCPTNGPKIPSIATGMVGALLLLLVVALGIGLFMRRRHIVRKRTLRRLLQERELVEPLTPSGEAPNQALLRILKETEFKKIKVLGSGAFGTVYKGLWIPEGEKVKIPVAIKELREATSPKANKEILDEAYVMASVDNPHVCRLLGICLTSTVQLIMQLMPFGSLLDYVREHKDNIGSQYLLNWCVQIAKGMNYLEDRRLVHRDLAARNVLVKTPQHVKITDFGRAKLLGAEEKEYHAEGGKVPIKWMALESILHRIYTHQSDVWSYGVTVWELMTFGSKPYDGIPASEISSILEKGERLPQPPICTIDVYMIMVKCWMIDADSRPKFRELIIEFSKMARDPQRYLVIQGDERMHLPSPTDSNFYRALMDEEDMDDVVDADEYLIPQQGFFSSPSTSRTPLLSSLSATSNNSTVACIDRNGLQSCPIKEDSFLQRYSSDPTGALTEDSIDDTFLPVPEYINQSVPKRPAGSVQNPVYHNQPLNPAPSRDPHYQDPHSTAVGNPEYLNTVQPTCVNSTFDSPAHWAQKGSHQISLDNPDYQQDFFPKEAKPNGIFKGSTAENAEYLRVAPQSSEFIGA
Method in brief: as §1

| Compound | DC50 (Del19/T790M/C797S EGFR) [nM] | DC50 (L858R/T790M/C797S EGFR) [nM] | Dmax (L858R/T790M/C797S EGFR) [%] | Dmax (%) (Del19/T790M/C797S EGFR) |
| --- | --- | --- | --- | --- |
| Cc1cc2cc(n1)-c1cnn(C)c1OCCC[C@@H](C)CN1/C(=N/C2=O)Nc2ccc(CN3CC4(C3)CN(C(=O)[C@@H]3CCN(c5cc(F)c([C@H]6CCC(=O)NC6=O)c(F)c5)C3)C4)cc21 [Example 78, (R)-3-(2,6-difluoro-4-((R)-3-(6-(((R,E)-1^1,2^6,7-trimethyl-3-oxo-5^2,5^3-dihydro-1^1H,5^1H-11-oxa-4-aza-5(2,1)-benzo[d]imidazola-2(2,4)-pyridina-1(4,5)-pyrazolacycloundecaphane-5^6-yl)methyl)-2,6-diazaspiro[3.3]heptane-2-carbonyl)pyrrolidin-1-yl)phenyl)piperidine-2,6-dione] | 0.7 | 0.5 | 90.2 | 82.6 |
| CO[C@H]1CN(CCc2cc(F)c([C@H]3CCC(=O)NC3=O)c(F)c2)CC[C@H]1NC(=O)c1ccc2c(c1)N1C[C@H](C)CCCOc3c(cnn3C)-c3cc(cc(C)n3)C(=O)/N=C/1N2 [Example 244, (R,E)-N-((3S,4R)-1-(4-((R)-2,6-dioxopiperidin-3-yl)-3,5-difluorophenethyl)-3-methoxypiperidin-4-yl)-1^1,2^6,7-trimethyl-3-oxo-5^2,5^3-dihydro-1^1H,5^1H-li-oxa-4-aza-5(2,1)-benzo[d]imidazola-2(2,4)-pyridina-1(4,5)-pyrazolacycloundecaphane-5^6-carboxamide] | 0.548 | 0.167 | 95.3 | 78.89 |
| Cc1cc2cc(n1)-c1cnn(C)c1OCCC[C@@H](C)CN1/C(=N/C2=O)Nc2ccc(CN3CC4(C3)CN(C(=O)C3CN(c5cc(F)c([C@H]6CCC(=O)NC6=O)c(F)c5)C3)C4)cc21 [Example 79, (R)-3-(2,6-difluoro-4-(3-(6-(((R,E)-1^1,2^6,7-trimethyl-3-oxo-5^2,5^3-dihydro-1^1H,5^1H-11-oxa-4-aza-5(2, 1)-benzo[d]imidazola-2(2,4)-pyridina-1(4,5)-pyrazolacycloundecaphane-5^6-yl)methyl)-2,6-diazaspiro[3.3]heptane-2-carbonyl)azetidin-1-yl)phenyl)piperidine-2,6-dione] | 0.7 | 0.6 | 90.6 | 82.2 |
| Cc1cc2cc(n1)-c1cnn(C)c1OCC[C@@H]1C[C@H]1CN1/C(=N/C2=O)Nc2ccc(N3CCC(C(=O)N4CCN(c5cc(F)c([C@H]6CCC(=O)NC6=O)c(F)c5)CC4)CC3)cc21 [Example 367, (R)-3-(4-(4-(1-((71R,72S,E)-1^1,2^6-dimethyl-3-oxo-5^2,5^3-dihydro-1^1H,5^1H-10-oxa-4-aza-5(2,1)-benzo[d]imidazola-2(2,4)-pyridina-1(4,5)-pyrazola-7(1,2)-cyclopropanacyclodecaphane-5^6-yl)piperidine-4-carbonyl)piperazin-1-yl)-2,6-difluorophenyl)piperidine-2,6-dione] | 0.623 | 1.31 | 87.8 | 80.77 |
| Cc1cc2cc(n1)-c1cnn(C)c1OCCC[C@@H](C)CN1/C(=N/C2=O)Nc2ccc(N3CCN(C4CCN(c5cc(F)c([C@H]6CCC(=O)NC6=O)c(F)c5)CC4)C[C@@H]3C)cc21 [Example 383, (R)-3-(2,6-difluoro-4-(4-((S)-3-methyl-4-((R,E)-1^1,2^6,7-trimethyl-3-oxo-5^2,5^3-dihydro-1^1H,5^1H-11-oxa-4-aza-5(2,1)-benzo[d]imidazola-2(2,4)-pyridina-1(4,5)-pyrazolacycloundecaphane-5-yl)piperazin-1-yl)piperidin-1-yl)phenyl)piperidine-2,6-dione] | 2.19 | 1.34 | 88.8 | 73.18 |
| Cc1cc2cc(n1)-c1cnn(C)c1OCCC[C@@H](C)CN1/C(=N/C2=O)Nc2ccc(CN3CC4CCC(C3)N4C(=O)[C@@H]3CCN(c4cc(F)c([C@H]5CCC(=O)NC5=O)c(F)c4)C3)cc21 [Example 83, (3R)-3-(2,6-difluoro-4-((3R)-3-(3-(((R,E)-1^1,2^6,7-trimethyl-3-oxo-5^2,5^3-dihydro-1^1H,5^1H-11-oxa-4-aza-5(2,1)-benzo[d]imidazola-2(2,4)-pyridina-1(4,5)-pyrazolacycloundecaphane-5^6-yl)methyl)-3,8-diazabicyclo[3.2.1]octane-8-carbonyl)pyrrolidin-1-yl)phenyl)piperidine-2,6-dione] | 2 | 2 | 82.5 | 73.0 |
| Cc1cc2cc(n1)-c1cnn(C)c1OCCC[C@@H](C)CN1/C(=N/C2=O)Nc2ccc(N3CCN(C4CCN(c5cc(F)c([C@H]6CCC(=O)NC6=O)c(F)c5)CC4)CC3=O)cc21 [Example 374, (R)-3-(2,6-difluoro-4-(4-(3-oxo-4-((R,E)-1^1,2^6,7-trimethyl-3-oxo-5^2,5^3-dihydro-1^1H,5^1H-11-oxa-4-aza-5(2,1)-benzo[d]imidazola-2(2,4)-pyridina-1(4,5)-pyrazolacycloundecaphane-5^6-yl)piperazin-1-yl)piperidin-1-yl)phenyl)piperidine-2,6-dione] | 0.583 | 0.591 | 92.7 | 81.48 |
| Cc1cc2cc(n1)-c1cnn(C)c1OCCC[C@@H](C)CN1/C(=N/C2=O)Nc2ccc(N3CCN(CCc4cc(F)c([C@H]5CCC(=O)NC5=O)c(F)c4)CC3)cc21 [Example 320, (R)-3-(2,6-difluoro-4-(2-(4-((R,E)-1^1,26,7-trimethyl-3-oxo-5^2,5^3-dihydro-1^1H,5^1H-11-oxa-4-aza-5(2,1)-benzo[d]imidazola-2(2,4)-pyridina-1(4,5)-pyrazolacycloundecaphane-5^6-yl)piperazin-1-yl)ethyl)phenyl)piperidine-2,6-dione] | 0.674 | 0.591 | 86.2 | 71.04 |

Now from value to molecule, other results behind:

| DC50 (Del19/T790M/C797S EGFR) [nM] | DC50 (L858R/T790M/C797S EGFR) [nM] | Dmax (L858R/T790M/C797S EGFR) [%] | Compound | Dmax (%) (Del19/T790M/C797S EGFR) |
| --- | --- | --- | --- | --- |
| 1.29 | 0.98 | 78.5 | Cc1cc2cc(n1)-c1cnn(C)c1OCCC[C@@H](C)CN1/C(=N/C2=O)Nc2ccc(N3CCN(C4CCN(c5cc(F)c([C@H]6CCC(=O)NC6=O)c(F)c5)CC4)[C@@H](CC#N)C3)cc21 [Example 452, 2-((S)-1-(1-(4-((R)-2,6-dioxopiperidin-3-yl)-3,5-difluorophenyl)piperidin-4-yl)-4-((R,E)-1^1,2^6,7-trimethyl-3-oxo-5^2,5^3-dihydro-1^1H,5^1H-11-oxa-4-aza-5(2,1)-benzo[d]imidazola-2(2,4)-pyridina-1(4,5)-pyrazolacycloundecaphane-5^6-yl)piperazin-2-yl)acetonitrile] | 75.73 |
| 1.5 | 1.67 | 87.7 | Cc1cc2cc(n1)-c1cnn(C)c1OCCC[C@@H](C)CN1/C(=N/C2=O)Nc2ccc(N3CCN(C4CCN(c5cc(F)c([C@H]6CCC(=O)NC6=O)c(F)c5)CC4)C[C@H]3C)cc21 [Example 384, (R)-3-(2,6-difluoro-4-(4-((R)-3-methyl-4-((R,E)-1^1,2^6,7-trimethyl-3-oxo-5^2,5^3-dihydro-1^1H,5^1H-11-oxa-4-aza-5(2,1)-benzo[d]imidazola-2(2,4)-pyridina-1(4,5)-pyrazolacycloundecaphane-5^6-yl)piperazin-1-yl)piperidin-1-yl)phenyl)piperidine-2,6-dione] | 75.83 |
| 1.26 | 0.677 | 80.5 | Cc1cc2cc(n1)-c1cnn(C)c1OCCC[C@@H](C)CN1/C(=N/C2=O)Nc2ccc(N3CCN(CCN(C)c4ccc5c(c4)CN([C@H]4CCC(=O)NC4=O)C5=O)CC3)cc21 [Example 405, (S)-3-(5-(methyl(2-(4-((R,E)-1^1,2^6,7-trimethyl-3-oxo-5^2,5^3-dihydro-1^1H,5^1H-11-oxa-4-aza-5(2,1)-benzo[d]imidazola-2(2,4)-pyridina-1(4,5)-pyrazolacycloundecaphane-5^6-yl)piperazin-1-yl)ethyl)amino)-1-oxoisoindolin-2-yl)piperidine-2,6-dione] | 78.67 |
| 4.5 | 4.7 | 90.3 | Cc1cc2cc(n1)-c1cnn(C)c1OCCC[C@@H](C)CN1/C(=N/C2=O)Nc2ccc(N3C[C@@H](C)N(C4CCN(c5cc(F)c([C@H]6CCC(=O)NC6=O)c(F)c5)CC4)C[C@H]3C)cc21 [Example 398, (R)-3-(4-(4-((2R,5R)-2,5-dimethyl-4-((R,E)-1^1,2^6,7-trimethyl-3-oxo-5^2,53-dihydro-1^1H,5^1H-11-oxa-4-aza-5(2,1)-benzo[d]imidazola-2(2,4)-pyridina-1(4,5)-pyrazolacycloundecaphane-5^6-yl)piperazin-1-yl)piperidin-1-yl)-2,6-difluorophenyl)piperidine-2,6-dione] | 72.53 |
| 2.13 | 2.01 | 88.3 | COC[C@@H]1CN(c2ccc3c(c2)N2C[C@H](C)CCCOc4c(cnn4C)-c4cc(cc(C)n4)C(=O)/N=C/2N3)CCN1C1CCN(c2cc(F)c([C@H]3CCC(=O)NC3=O)c(F)c2)CC1 [Example 397, (R)-3-(2,6-difluoro-4-(4-((S)-2-(methoxymethyl)-4-((R,E)-1^1,2^6,7-trimethyl-3-oxo-5^2,5^3-dihydro-1^1H,5^1H-1i-oxa-4-aza-5(2,1)-benzo[d]imidazola-2(2,4)-pyridina-1(4,5)-pyrazolacycloundecaphane-5-yl)piperazin-1-yl)piperidin-1-yl)phenyl)piperidine-2,6-dione] | 76.68 |

— US20240342292A1, “Compounds for the Degradation of EGFR Kinase” (BeiGene Switzerland GmbH, priority 2021, published 2024)
